Assay results as given in patent US11286236B2, “Compound, agent and composition for the suppression of cancer growth” (Vector Vitale IP LLC, priority 2018, dated 2022).

Key:
Type in all cases: cell-based
[1] = tested on: human Keratinocytes (HaCaT line); assay: Metabolic activity of human keratinocytes (HaCaT line)
Method: In Vitro Effects of Experimental Compound ^85Rbe-E2 on metabolic activity of human Keratinocytes
(§1) Proliferative and metabolic activity of cells was determined by the colorimetric method.
(§2) The metabolic activity of the cells (i.e., the number of living cells) was assessed by MTT staining.
(§3) 24 hours after the last reagent, the cells were seeded at a concentration of 1×10^4 cells/well in wells of a 96-well plate in complete DMEM nutrient medium with 10% FBS and 40 μg/ml gentamicin. The cells were cultured in a humidified atmosphere at 5% CO2 and 37° C. for 24 hours. After 24 hours, various doses of experimental substances were added to the respective wells. The cells were incubated at 37° C. and 5% CO2 for an additional 72 hours.
(§4) Upon completion of the incubation with the preparations, the proliferative and metabolic activity of the cells in the experiment was evaluated by the colorimetric method by staining MTT cells:
(§5) 10 μl of the MTT solution (5 mg/ml of the dye in phosphate-buffered saline) was added to each well of the plate; the plate was incubated in a CO2 incubator at 37° C. for 3 hours. After that, the medium was removed from the wells, and the formed tetraformazan crystals were dissolved in 100 μl of dimethylsulfoxide.
(§6) When MTT was used, the results were evaluated using a multi-well spectrophotometer at an excitation wavelength of 540 nm. The percentage of viable cells was calculated by the formula: IR=(A540(experiment)/A540(control))×100%.

Normal Human Fibroblasts = assay: Metabolic activity of normal human fibroblasts (MTT assay)
Method: In Vitro Assessment of the Effects of Experimental Compound ^85Rbe-E2 on metabolic Activity of Normal Human Fibroblasts (MTT Assay)
In Vitro Assessment of the Effects of E2+^85Rbe on Metabolic Activity of Normal Human Fibroblasts (MTT Assay)
as §1, §2, §3, §4, §5, §6

Mouse Bone Marrow Cells = assay: Cytotoxic/cytostatic effects on mouse bone marrow cells (MTT assay)
Method: In Vitro Assessment of Cytotoxic/Cytostatic Effects of Experimental Compound ^85Rbe-E2 on Mouse Bone Marrow Cells
as §1, §2, §3, §4, §5, §6

[2] = tested on: Mouse melanoma cells (MM-4 cell line); assay: Cytotoxic effect on melanoma cells, single agents (crystal violet)
Method: Materials and Methods: Mouse melanoma cells (MM-4 cell line) were seeded into 96-well plates (TPP, Italy) in DMEM (High Glucose w/L-Glutamine w/o Sodium Pyruvate; Biowest, France) supplemented with 10% newborn calf serum (Biowest, France) and […] gentamicin (Sigma, USA) at a seeding density of 5×10^4 cells/ml. The cells were then cultured in an incubator with a humidified atmosphere of 5% CO2 in air at 37° C. 24 hours after the cells were seeded, a compound according to the invention that comprises ^85Rb-enriched rubidium salt of N-benzoyl-N′-(4-toluenesulfonyl)-o-phenylenediamine of formula I was added into the appropriate wells. ^85Rbe-E2 was used at the following doses: 2.0 μg/ml, 1.0 μg/ml, 0.5 μg/ml (each is the final concentration of ^85Rbe after addition to the well). The cytotoxic effect was determined by counting the number of live cells observed after treatment, expressed as a percentage of the number of live cells observed/counted in the control (cells seed in the well and not treated). Control cells were not treated. For each concentration, the experiment was carried out twice. The effects of the drugs were evaluated visually, which allowed us to examine the morphological pattern of the cytotoxic action of the drugs, and by staining the cells with crystal violet, followed by OD measurement at an excitation wavelength of 540 nm using a MultiScan spectrophotometer. For comparison, a parallel experiment was carried out with the use of a known antitumor drug cisplatin and a compound of rubidium salt of N-benzoyl-N′-(4-toluenesulfonyl)-o-phenylenediamine of formula I which comprised a naturally-abundant mixture of isotopes of rubidium instead of being enriched for the ^85Rb isotope.

## Cc1ccc(S(=O)(=O)[N-]c2ccccc2NC(=O)c2ccccc2)cc1.[Rb+] [E2 + Rb, rubidium salt of N-benzoyl-N′-(4-toluenesulfonyl)-o-phenylenediamine]
[1]; 16 ng/ml
  Metabolic activity of cells, %: 104.7 ± 3.2%
[1]; 31 ng/ml
  Metabolic activity of cells, %: 99.2 ± 12.5%
[1]; 62 ng/ml
  Metabolic activity of cells, %: 97.3 ± 4.1%
[1]; 0.13 μg/ml
  Metabolic activity of cells, %: 87.5 ± 6.7%
[1]; 0.25 μg/ml
  Metabolic activity of cells, %: 95 ± 1.7%
[1]; 0.5 μg/ml
  Metabolic activity of cells, %: 103 ± 2.7%
[1]; 1 μg/ml
  Metabolic activity of cells, %: 130 ± 2%
Normal Human Fibroblasts; 2.5 μg/ml
  Metabolic activity of cells, %: 128.2 ± 8.3%
Normal Human Fibroblasts; 5 μg/ml
  Metabolic activity of cells, %: 103.4 ± 9.3%
Normal Human Fibroblasts; 10 μg/ml
  Metabolic activity of cells, %: 104.6 ± 14.2%
Normal Human Fibroblasts; 20 μg/ml
  Metabolic activity of cells, %: 96.8 ± 9.8%
Normal Human Fibroblasts; 38 μg/ml
  Metabolic activity of cells, %: 98.8 ± 7.1%
Normal Human Fibroblasts; 75 μg/ml
  Metabolic activity of cells, %: 97.7 ± 7.5%
Normal Human Fibroblasts; 150 μg/ml
  Metabolic activity of cells, %: 99.3 ± 3.2%
Mouse Bone Marrow Cells; 1.25 μg/ml
  Metabolic activity of cells, %: 111.2 ± 6.6%
Mouse Bone Marrow Cells; 2.5 μg/ml
  Metabolic activity of cells, %: 106.8 ± 6%
Mouse Bone Marrow Cells; 5 μg/ml
  Metabolic activity of cells, %: 106.7 ± 11.8%
Mouse Bone Marrow Cells; 10 μg/ml
  Metabolic activity of cells, %: 99.3 ± 4.7%
Mouse Bone Marrow Cells; 20 μg/ml
  Metabolic activity of cells, %: 88 ± 3.5%
Mouse Bone Marrow Cells; 38 μg/ml
  Metabolic activity of cells, %: 96.2 ± 4.4%
Mouse Bone Marrow Cells; 75 μg/ml
  Metabolic activity of cells, %: 105.2 ± 7.8%
Mouse Bone Marrow Cells; 150 μg/ml
  Metabolic activity of cells, %: 107.1 ± 3.8%
[2]; 0.5 μg/ml of rubidium (85Rbe or Rb)
  Number of cells after their treatment with the drug, %: 90.6 ± 0.9%
[2]; 1.0 μg/ml of rubidium (85Rbe or Rb)
  Number of cells after their treatment with the drug, %: 84.9 ± 0.9%
[2]; 2.0 μg/ml of rubidium (85Rbe or Rb)
  Number of cells after their treatment with the drug, %: 62.1 ± 0.8%
[2]; 0.5-2.0 μg rubidium/ml
  Activity against tumor cells compared with the 85Rb-enriched salt: significantly lower activity against tumor cells
